Data set [1] concerns human ACD (acid chitorate dextrose) preserved blood. Put plainly: 2,3-DPG level after addition of naphthoquinone to preserved blood (Keitt's method). Type of data set: cell-based. The note with it: for Blood level of 2,3-DPG: One hundred PM naphthoquinone in 1 ml human ACD preserved blood, 60 min at 37°C, control 294; for Concentrations of 2,3-DPG: preserved blood, mean ± standard error, n=30.

A short description of a further data set: Toxicity (LD50), mouse. The note with it: in vivo.
Another data set is described as follows: Toxicity (LD50), rat. The following applies: in vivo, po.
Data set [2] deals with fresh blood taken from a patient with an ischemic disease. Put plainly: 2,3-DPG level after addition of vitamin K3 to fresh blood of patients with an ischemic disease. The note with it: 100 µM. The class given is cell-based, human. As for the experimental part: One hundred PM of each naphthoquinone (use 10 mM naphthoquinone dissolved in 50 % ethanol solution) was added to 1 ml of human ACD (acid chitorate dextrose) preserved blood (of which 2,3-DPG concentration had decreased to 1/20 of the normal level). After incubation for 60 min at 37°C, the reaction was stopped by addition of perchloric acid. According to Keitt's method (J. Lab. Clin. Med. 77, 470-475 (1971)), thereafter, 2,3-DPG was extracted and quantified.
One hundred µM of vitamin K3 was added in 1 ml of fresh blood taken from a patient with an ischemic disease, and the concentration of 2,3-DPG was determined in the same manner as in Example 1.

Regarding `O=C1C=C(S(=O)(=O)O)c2ccccc2C1=O` [1,2-Naphthoquinone-4-sulfonic acid, 1,2-naphthoquinone-4-sulfonic acid], the “Blood level of 2,3-DPG” value in data set [1] is reported as 3923 n moles/ml RBC. In addition, the LD50 (as a rule, the dose at which mortality reaches 50%) in the data set “Toxicity (LD50), mouse” (ip) worked out at 625 mg/kg.
Take `O=C1C=CC(=O)c2ccccc21` [1,4-Naphthoquinone, 1,4-naphthoquinone]: the “Blood level of 2,3-DPG” value in data set [1] is on record as 3554 n moles/ml RBC. The molecule also displayed an LD50 in “Toxicity (LD50), rat” of 190 mg/kg.
With `O=C1C(Cl)=C(Cl)C(=O)c2ccccc21` [2,3-Dichloro-1,4-naphthoquinone, 2,3-dichloro-1,4-naphthoquinone], the “Blood level of 2,3-DPG” value in data set [1] is reported as 3971 n moles/ml RBC.
As to `CC1=CC(=O)c2ccccc2C1=O` [Vitamin K3, 2-methyl-l,4-naphthoqunone], the “Blood level of 2,3-DPG” value in data set [1] was found to be 3660 n moles/ml RBC. Also, the “Concentrations of 2,3-DPG” value is listed as 1124 ± 107 (30) n moles/ml RBC in data set [1] (dose 10 µM, dose 0: 227 ± 15); 3256 ± 244 (30) n moles/ml RBC in data set [1] (dose 100 µM); 5144 ± 253 (30) n moles/ml RBC in data set [1] (dose 1000 µM); 5569 ± 311 (30) n moles/ml RBC in data set [1] (dose 10000 µM); 5490±117(12) n moles/ml RBC in data set [2] (Buerger's Disease, n=12, no addition 4253±287); 5624±266(15) n moles/ml RBC in data set [2] (Closed arteriosclerosis, n=15, no addition 4796±365). Also, the LD50 in “Toxicity (LD50), mouse” (po) turned out to be 500 mg/kg. In addition, the “blood levels of 2,3-DPG in the patients with ischemic diseases (in words)” value in data set [2] (normal subjects 4931± 53) is “recovered to the normal level or higher levels”.

Source of the values: EP0146338A2, “A blood accelerator 2, 3-diphosphoglyceric acid” (SHIRATORI PHARMACEUTICAL CO. LTD., priority 1983, dated 1985).
